Results published in US8791156B2, “Polyacetylene compound, an extract containing the same and application thereof” (priority 2011, dated 2014).
Read-outs that look alike come from different tables or passages of the source.

Tested on: mouse macrophage (RAW 264.7 cell)
Assay: Inhibition of NO production (nitrite by Greiss reaction) in LPS-treated mouse macrophages
Type: cell-based
Conditions: for IC50: Mus musculus
Text: This embodiment uses an analytical method to induce the macrophage of an inflaming mouse, with combination of Greiss reaction, to measure nitrites so as to indirectly measure the output of nitrogen monoxide (NO). As NO is a significant factor in the inflaming reaction, the output of NO can be used to evaluate the degree of inflaming reaction.
In brief, culture mouse macrophage (RAW 264.7 cell) pre-cultured in a 75 cm^2 culture dish in a 96 well plate at a density of 2×10^5 cells/well. The culture solution used is DMEM with 10% FBS, 100 units/mL penicillin and 100 μg/mL streptomycin. The culturing environment is 37° C. and 5% CO2 cell incubator. Let the normally attaching cells pass or not pass the LPS (1 μg/mL) processing with addition or no addition of the compounds obtained from Embodiment II. Then, use Greiss reaction to measure the concentration of nitrites in the upper clarified liquid of the culture solution after culturing the cells.
The experimental results are shown in FIG. 3, wherein, the ability of each compound to inhibit production of NO is shown through the method of IC50. IC50 represents 50% of the inhibiting concentration, i.e., […]. From the data in the figure, it is known that the compounds obtained from Embodiment II all manifest an effect of inhibiting production of NO, i.e., an anti-inflammation effect.

[1] = RAW 264.7 cells, LPS 1 μg/mL, FIG. 3

With C=C(C)C#Cc1c(OC)cc(OC)c(OC)c1C [Compound d, Antrocamphin A] the “anti-inflammation ability (inhibiting production of NO), in words” value [1] was “excellent anti-inflammation ability”.

In the case of COc1cc(C)c(OC)c2c1OCO2 [Compound b, 1,4-dimethoxy-2,3-methylenedioxy-5-methylbenzene], the IC50 (RAW264.7, RAW 264.7 cells, LPS 1 μg/mL, nitrites by Greiss reaction, FIG. 3, printed in brackets as 'about', read-out: IC50 of inhibiting production of NO (approximate range)) is reported as 20 to 35 µg/mL and the IC50 (RAW264.7, RAW 264.7 cells, LPS 1 μg/mL, nitrites by Greiss reaction, FIG. 3, read-out: IC50 of inhibiting production of NO) is reported as over 20 µg/mL.

C=C(CC[C@@H](C(=O)O)[C@H]1CC[C@@]2(C)C3=CC[C@H]4C(C)(C)[C@@H](O)CC[C@]4(C)C3=CC[C@]12C)C(C)C [Compound m, Dehydroeburicoic acid] showed an IC50 (RAW264.7, read-out: IC50 of inhibiting production of NO) of over 20 µg/mL and an IC50 (RAW264.7, read-out: IC50 of inhibiting production of NO (approximate range)) of 20 to 35 µg/mL.

With C=C(C)C#Cc1c(C)c2c(c(OC)c1OC)OCO2 [Compound h, Antrocamphin C] the “anti-inflammation ability (inhibiting production of NO), in words” value [1] was “excellent anti-inflammation ability”.
